The results in this text go back to US10800741B2 (ANCUREALL PHARMACEUTICAL (SHANGHAI) CO., LTD., priority 2017, dated 2020).

pIC50: −log10 of the molar value. A value given as a limit tells only on which side of the number the result lay.

Assay type in all cases: cell-based, Human
For one test, the system named is Kasumi-1 (KIT N822K). The experiment in a line: In vitro growth inhibition of Kasumi-1 tumor cells (MTT/CCK8). The following applies: Homo sapiens, Kasumi 1; in vitro growth inhibition (or induction of apoptosis), cells cultured 3 to 5 days, MTT (CCK8); read-out: IC50 Kasumi-1 (KIT N822K).
The next test concerns MOLM-13 (FLT3-ITD). Put plainly: In vitro growth inhibition of MOLM-13 tumor cells (MTT/CCK8). Particulars: Homo sapiens, MOLM-13; in vitro growth inhibition (or induction of apoptosis), cells cultured 3 to 5 days, MTT (CCK8); read-out: IC50 MOLM-13 (FLT3-ITD).
In another test the test system is KATO III (FGFR2 amp). Put plainly: In vitro growth inhibition of KATO III tumor cells (MTT/CCK8). Particulars: Homo sapiens, KATO III; in vitro growth inhibition (or induction of apoptosis), cells cultured 3 to 5 days, MTT (CCK8); read-out: IC50 KATO III (FGFR2 amp).
For another test, the system named is H1703 (PDGFRa amp). The experiment in a line: In vitro growth inhibition of H1703 tumor cells (MTT/CCK8). Particulars: Homo sapiens, NCI-H1703; in vitro growth inhibition (or induction of apoptosis), cells cultured 3 to 5 days, MTT (CCK8); read-out: IC50 H1703 (PDGFRa amp).
Another test concerns Karpas 299 (NPM-ALK). Put plainly: In vitro growth inhibition of Karpas 299 tumor cells (MTT/CCK8). Particulars: Homo sapiens, KARPAS-299; in vitro growth inhibition (or induction of apoptosis), cells cultured 3 to 5 days, MTT (CCK8); read-out: IC50 Karpas 299 (NPM-ALK).
A further test deals with KCL-22 (BCR-ABL). The experiment in a line: In vitro growth inhibition of KCL-22 tumor cells (MTT/CCK8). The following applies: Homo sapiens, KCL-22; in vitro growth inhibition (or induction of apoptosis), cells cultured 3 to 5 days, MTT (CCK8); read-out: IC50 KCL-22 (BCR-ABL).
The next test has as its system H1581 (FGFR1 amp). Put plainly: In vitro growth inhibition of H1581 tumor cells (MTT/CCK8). The following applies: Homo sapiens, NCI-H1581; in vitro growth inhibition (or induction of apoptosis), cells cultured 3 to 5 days, MTT (CCK8); read-out: IC50 H1581 (FGFR1 amp).
A further test deals with Hep3B2 (FGFR3/4+++). The experiment in a line: In vitro growth inhibition of Hep3B2 tumor cells (MTT/CCK8). Particulars: Homo sapiens, Hep3B; in vitro growth inhibition (or induction of apoptosis), cells cultured 3 to 5 days, MTT (CCK8); read-out: IC50 Hep3B2 (FGFR3/4+++).

As for `COc1cc2nccc(Nc3ccc(NC(=O)Nc4cc(C(C)(C)C)on4)cc3)c2cc1C(N)=O` [Compound 78, 4-{4-[3-(5-tert-butyl-isoxazol-3-yl)-ureido]-phenylamino}-7-methoxyquinolin-6-carboxamide], the pIC50 is less than 6.00 in the test on Kasumi-1 (KIT N822K); 8.86 with MOLM-13 (FLT3-ITD); 7.44 in the test with KATO III (FGFR2 amp); 6.35 in the test on H1703 (PDGFRa amp); less than 6.00 with Karpas 299 (NPM-ALK); less than 6.00 in the test with KCL-22 (BCR-ABL). The pIC50 in the test on H1581 (FGFR1 amp) is 6.16; in the test on Hep3B2 (FGFR3/4+++), 6.30.

Turning to `COc1cc2nccc(Oc3ccc(NC(=O)Nc4cc(C(C)(C)C)on4)c(Cl)c3)c2cc1C(N)=O` [Compound 2, 4-{4-[3-(5-tert-butyl-isoxazol-3-yl)-ureido]-3-chloro-phenoxy}-7-methoxyquinolin-6-carboxamide], the pIC50 with Kasumi-1 (KIT N822K) was 7.58; with MOLM-13 (FLT3-ITD), 8.19; with KATO III (FGFR2 amp), 9.29; in the test with H1703 (PDGFRa amp), 8.10; in the test on Karpas 299 (NPM-ALK), 6.23; in the test with KCL-22 (BCR-ABL) it was 8.12. The pIC50 with H1581 (FGFR1 amp) is 8.47; in the test with Hep3B2 (FGFR3/4+++), 7.59.

Consider `CNC(=O)c1cc2c(Oc3ccc(NC(=O)Nc4cc(C(C)(C)C)n[nH]4)c(Cl)c3)ccnc2cc1OC` [Compound 45, 4-{4-[3-(5-tert-butyl-2H-pyrazol-3-yl)-ureido]-3-chloro-phenoxy}-7-methoxyquinolin-6-carboxylic acid methylamide], for which the pIC50 was 7.47 with Kasumi-1 (KIT N822K); 8.20 in the test with MOLM-13 (FLT3-ITD); 8.84 in the test with KATO III (FGFR2 amp); 7.59 in the test on H1703 (PDGFRa amp); 6.38 with Karpas 299 (NPM-ALK); 7.66 in the test with KCL-22 (BCR-ABL). The pIC50 with H1581 (FGFR1 amp) is 7.78; in the test with Hep3B2 (FGFR3/4+++), 7.40.

In the case of `C=CC(=O)N1CCC(NC(=O)Nc2ccc(Oc3ccnc4cc(OC)c(C(N)=O)cc34)cc2Cl)C1` (stereo not shown) [Compound 70, 4-{3-chloro-4-[3-(1-acryloylpyrrolidin-3-yl)-ureido]-phenoxy}-7-methoxyquinolin-6-carboxamide], the pIC50 in the test with Kasumi-1 (KIT N822K), with MOLM-13 (FLT3-ITD), with KATO III (FGFR2 amp), in the test with H1703 (PDGFRa amp), in the test on Karpas 299 (NPM-ALK) and with KCL-22 (BCR-ABL) was less than 6.00 in each case. Also, the pIC50 with H1581 (FGFR1 amp) and with Hep3B2 (FGFR3/4+++) was less than 6.00 in each case.

Take `CNC(=O)c1cc2c(Oc3ccc(NC(=O)Nc4cc(C(C)(C)C)nn4C)c(Cl)c3Cl)ccnc2cc1OC` [Compound 57, 4-{4-[3-(5-tert-butyl-2-methyl-2H-pyrazol-3-yl)-ureido]-2,3-dichloro-phenoxy}-7-methoxyquinolin-6-carboxylic acid methylamide]: the pIC50 was 8.52 in the test with Kasumi-1 (KIT N822K); 8.89 with MOLM-13 (FLT3-ITD); 9.39 in the test on KATO III (FGFR2 amp); 7.93 in the test on H1703 (PDGFRa amp); 7.16 in the test on Karpas 299 (NPM-ALK); 8.59 in the test on KCL-22 (BCR-ABL). The pIC50 is 8.55 in the test with H1581 (FGFR1 amp) and 7.66 in the test on Hep3B2 (FGFR3/4+++).

`COc1cc2nccc(Oc3ccc(NC(=O)Nc4cc(C(C)(C)C)on4)c(Cl)c3)c2cc1[N+](=O)[O-]` [Compound 18, 1-(5-tert-butyl-isoxazol-3-yl)-3-[2-chloro-4-(7-methoxy-6-nitro-quinolin-4-yloxy)-phenyl]-urea]: the pIC50 was 7.23 in the test on Kasumi-1 (KIT N822K); 6.39 with MOLM-13 (FLT3-ITD); 8.17 with KATO III (FGFR2 amp); 7.17 in the test with H1703 (PDGFRa amp); less than 6.00 in the test with Karpas 299 (NPM-ALK); 7.08 in the test with KCL-22 (BCR-ABL). The pIC50 was 6.65 in the test with H1581 (FGFR1 amp) and 6.20 in the test with Hep3B2 (FGFR3/4+++).

For the molecule `COc1cc2nccc(Nc3ccc(NC(=O)Nc4cc(C(C)(C)C)on4)cc3Cl)c2cc1C(N)=O` [Compound 100, 4-{4-[3-(5-tert-butyl-isoxazol-3-yl)-ureido]-2-chloro-phenylamino}-7-methoxy-quinolin-6-carboxamide], the pIC50 with Kasumi-1 (KIT N822K) is less than 6.00; with MOLM-13 (FLT3-ITD) it was 9.00; in the test on KATO III (FGFR2 amp), 7.30; in the test on H1703 (PDGFRa amp) it was 6.69; in the test with Karpas 299 (NPM-ALK) it was 6.08; in the test on KCL-22 (BCR-ABL), 6.16. For the same molecule, the pIC50 in the test with H1581 (FGFR1 amp) is 6.57; in the test on Hep3B2 (FGFR3/4+++), less than 6.00.

Take `CC(C)(C)c1cc(NC(=O)Nc2ccc(Oc3ccnc4cc(OCCN5CCCCC5)c(C(N)=O)cc34)cc2Cl)[nH]n1` [Compound 84, 4-{4-[3-(5-tert-butyl-2H-pyrazol-3-yl)-ureido]-3-chloro-phenoxy}-7-(2-piperidin-1-yl-ethoxy)-quinolin-pyridine-6-carboxamide]: the pIC50 in the test with Kasumi-1 (KIT N822K) is 6.62; with MOLM-13 (FLT3-ITD) it was 7.45; in the test on KATO III (FGFR2 amp), 8.22; in the test with H1703 (PDGFRa amp), 6.90; in the test with Karpas 299 (NPM-ALK) it was less than 6.00; in the test on KCL-22 (BCR-ABL), 6.54. Moreover, the pIC50 is 6.94 in the test with H1581 (FGFR1 amp) and 6.83 in the test with Hep3B2 (FGFR3/4+++).

As to `COCCOc1cc2nccc(Oc3ccc(NC(=O)Nc4cc(C(C)(C)C)nn4C)c(Cl)c3)c2cc1C(N)=O` [Compound 44, 4-{4-[3-(5-tert-butyl-2-methyl-2H-pyrazol-3-yl)-ureido]-3-chloro-phenoxy}-7-(2-methoxy-ethoxy)-quinolin-6-carboxamide], the pIC50 in the test with Kasumi-1 (KIT N822K) was 8.10; in the test with MOLM-13 (FLT3-ITD), 8.42; in the test with KATO III (FGFR2 amp), 8.97; in the test with H1703 (PDGFRa amp), 8.19; in the test on Karpas 299 (NPM-ALK), 6.53; in the test with KCL-22 (BCR-ABL), 8.66. For the same molecule, the pIC50 is 8.79 in the test on H1581 (FGFR1 amp) and 7.95 with Hep3B2 (FGFR3/4+++).

`COc1cc2nccc(Oc3ccc(NC(=O)N(C)c4cc(C(C)(C)C)on4)c(Cl)c3)c2cc1C(N)=O` [Compound 12, 4-{4-[3-(5-tert-butyl-isoxazol-3-yl)-3-methyl-ureido]-3-chloro-phenoxy}-7-methoxyquinolin-6-carboxamide]: the pIC50 in the test with Kasumi-1 (KIT N822K) is 6.41; in the test with MOLM-13 (FLT3-ITD) it was 6.91; in the test with KATO III (FGFR2 amp), 6.99; in the test on H1703 (PDGFRa amp), 6.86; with Karpas 299 (NPM-ALK) it was less than 6.00; in the test on KCL-22 (BCR-ABL), 6.94. Further, the pIC50 in the test on H1581 (FGFR1 amp) is 6.23; in the test on Hep3B2 (FGFR3/4+++), 6.10.

As to `CCC(=O)N1CCC(NC(=O)Nc2ccc(Oc3ccnc4cc(OC)c(C(N)=O)cc34)cc2Cl)C1` (stereo not shown) [Compound 69, 4-{3-chloro-4-[3-(1-propionyl-pyrrolidin-3-yl)-ureido]-phenoxy}-7-methoxyquinolin-6-carboxamide], the pIC50 in the test with Kasumi-1 (KIT N822K), with MOLM-13 (FLT3-ITD), in the test on KATO III (FGFR2 amp), in the test with H1703 (PDGFRa amp), in the test on Karpas 299 (NPM-ALK) and in the test on KCL-22 (BCR-ABL) was less than 6.00 in each case. The pIC50 in the test on H1581 (FGFR1 amp) and with Hep3B2 (FGFR3/4+++) was less than 6.00 each time.

For the molecule `CNC(=O)c1cc2c(Oc3ccc(NC(=O)Nc4cc(C(C)(C)C)on4)c(Cl)c3)ccnc2cc1OC` [Compound 14, 4-{4-[3-(5-tert-butyl-isoxazol-3-yl)-ureido]-3-chloro-phenoxy}-7-methoxyquinolin-6-carboxylic acid methylamide], the pIC50 in the test on Kasumi-1 (KIT N822K) was 7.48; with MOLM-13 (FLT3-ITD), 8.25; in the test on KATO III (FGFR2 amp), 8.67; with H1703 (PDGFRa amp), 7.99; in the test on Karpas 299 (NPM-ALK) it was 6.14; in the test on KCL-22 (BCR-ABL), 8.05. Further, the pIC50 is 7.98 with H1581 (FGFR1 amp) and 7.62 with Hep3B2 (FGFR3/4+++).

`COc1cc(Oc2ccnc3cc(OC)c(C(N)=O)cc23)ccc1NC(=O)Nc1cc(C(C)(C)C)on1` [Compound 5, 4-{4-[3-(5-tert-butyl-isoxazol-3-yl)-ureido]-3-methoxy-phenoxy}-7-methoxyquinolin-6-carboxamide]: the pIC50 in the test on Kasumi-1 (KIT N822K) was 7.89; with MOLM-13 (FLT3-ITD), 8.37; in the test with KATO III (FGFR2 amp), 8.01; in the test on H1703 (PDGFRa amp) it was 7.73; with Karpas 299 (NPM-ALK), less than 6.00; in the test on KCL-22 (BCR-ABL) it was 8.67. For the same molecule, the pIC50 is 7.18 with H1581 (FGFR1 amp) and 6.81 with Hep3B2 (FGFR3/4+++).

For the molecule `COc1cc2nccc(Oc3ccc(NC(=O)Nc4cc(C(C)(C)C)n[nH]4)c(C)c3C)c2cc1C(N)=O` [Compound 109, 4-{4-[3-(5-tert-butyl-2H-pyrazol-3-yl)-ureido]-2,3-dimethyl-phenoxy}-7-methoxy-quinolin-6-carboxamide], the pIC50 in the test with Kasumi-1 (KIT N822K) is 9.33; in the test on MOLM-13 (FLT3-ITD), 7.73; in the test with KATO III (FGFR2 amp), 8.81; in the test on H1703 (PDGFRa amp), 6.97; in the test on Karpas 299 (NPM-ALK) it was 6.25; in the test with KCL-22 (BCR-ABL), 8.61. Besides, the pIC50 with H1581 (FGFR1 amp) was 7.75; in the test with Hep3B2 (FGFR3/4+++), 7.01.
